Data reported in patent US20200113852A1, “METHODS OF PATIENT SELECTION AND TREATING TRXR- OR PRDX-OVEREXPRESSED CANCERS” (TRIACT THERAPEUTICS, INC., priority 2017, published 2020).

Legend:
[1] = system: cytosol and mitochondria of HCT116 cells; experiment: Subcellular fractionation: Iniparib-biotin labeling of cytosol and mitochondria; assay type: cell-based, human
Method: Cells were homogenized in an ice-cold buffer containing 10 mM Tris-HCl, pH 7.5, protease and phosphatase inhibitors, and 250 mM sucrose in the case of mitochondria preparation, using a glass dounce tissue grinder (30 strokes). After centrifugation at 1,000×g for 5 min at 4° C., homogenates supernatants were collected. For cytosol preparation the 1000×g supernatants were submitted to differential centrifugation in Tris-HCl buffer: a first centrifugation was carried out at 22,000×g for 20 min and the resulting supernatants were further centrifuged at 100,000×g for 60 min. The final supernatants were referred to as the cytosolic fractions.
FIG. 11A and FIG. 11B show HCT116 cells were pre-treated or not for 48 h with 1 mM BSO. Thereafter Iniparib-biotin at 100 μM was added for 4 h. Cell homogenates were then processed for cytosol preparation (FIG. 11A) or mitochondria immuno-purification (FIG. 11B).
Cell homogenates were then processed for cytosol preparation or mitochondria immuno-purification. […]

[2] = target: T1, TrxR1 (Homo sapiens, UniProt Q16881); experiment: In vitro Iniparib-biotin TrxR adduct formation on immunoprecipitated TrxR with or without NADPH; assay type: binding
T1 sequence (Q16881 1-499 isoform Q16881-5): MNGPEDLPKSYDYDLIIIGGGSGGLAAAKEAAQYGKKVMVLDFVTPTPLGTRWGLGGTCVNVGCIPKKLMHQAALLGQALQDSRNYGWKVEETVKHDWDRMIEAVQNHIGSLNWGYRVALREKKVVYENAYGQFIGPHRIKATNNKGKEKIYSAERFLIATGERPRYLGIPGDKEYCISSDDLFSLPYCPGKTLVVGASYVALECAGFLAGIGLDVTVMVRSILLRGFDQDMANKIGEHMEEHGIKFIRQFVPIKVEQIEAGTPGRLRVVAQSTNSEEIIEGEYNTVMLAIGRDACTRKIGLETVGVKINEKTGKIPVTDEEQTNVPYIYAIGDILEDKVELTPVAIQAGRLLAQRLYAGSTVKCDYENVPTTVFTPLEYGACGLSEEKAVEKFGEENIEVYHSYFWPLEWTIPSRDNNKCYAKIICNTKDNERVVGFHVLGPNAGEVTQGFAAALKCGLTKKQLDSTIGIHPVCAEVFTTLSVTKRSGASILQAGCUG

[3] = target: T2, TrxR2 (Homo sapiens, UniProt Q9NNW7); experiment: Mass spectrometry of immunoprecipitated TrxR2 modified by Iniparib in HCT116 cells; assay type: cell-based
T2 construct: TrxR1 and TrxR2 were immunoprecipitated from octylglucoside cell extracts (12 mg proteins); endogenous in cells; host or cells: HCT116 (BSO-pretreated)
Method: After separation by SDS-PAGE under reducing conditions and PageBlue® protein staining (Thermo scientific), bands of interest were excised, reduced with DTT, alkylated with iodoacetamide and in-gel digested with trypsin (Promega), according to the method of Shevchenko et al. (24). Peptides were extracted with 50 mM ammonium bicarbonate and 50% acetonitrile in 0.2% formic acid and analyzed by Nano LC-MS/MS after partial evaporation in a speed-vac concentrator. LC-MS/MS experiments were performed on an NanoAcquity UPLC (Waters) coupled to a hybrid LTQ Orbitrap Velos mass spectrometer (Thermo Fisher Scientific) equipped with a nanoelectrospray source. Tryptic digests were loaded onto a nanoAcquity UPLC Trap column (Symmetry C18, 5 μm, 180 μm×20 mm, Waters) and washed with 0.2% FA at 20 μl/min for 5 min. Peptides were then eluted on a C18 reverse-phase nanoAcquity column (BEH130 C18, 1.7 μm, 75 μm×250 mm, Waters) with a linear gradient of 7-30% solvent B (H2O/CH3CN/HCOOH, 10:90:0.2, by vol.) for 85 min, 30-90% solvent B for 10 min, and 90% solvent B for 5 min, at a flow rate of 250 nL/min. The mass spectrometer was operated in the data-dependent mode to automatically switch between MS and MS/MS acquisition. Survey full scan MS spectra (m/z 300-1,600) were acquired in the Orbitrap with a resolution of 60,000 at m/z 400. The AGC was set to 1×10^6 with a maximum injection time of 100 ms. The most intense ions (up to 20) were then isolated for fragmentation in the LTQ linear ion trap with normalized collision energy of 28% at the default activation q of 0.25 with an AGC of 5×10^3 and a maximum injection time of 200 ms. The dynamic exclusion time window was set to 80 s. […] The exact parent mass is the 12C isotope ion mass of the most intense isotopic pattern detected on the high resolution Orbitrap MS parallel scan and included in the MS/MS selection window. […]

[4] = target: T3, TrxR1 and other protein targets in HCT116 cells (Homo sapiens, UniProt Q16881); details: 90-min preincubation of GSH-depleted HCT116 (auranofin 10 μM or Iniparib 100 μM)
T3 sequence (Q16881 1-499 isoform Q16881-5): T1 sequence (Q16881 1-499 isoform Q16881-5)
Method: TrxR1 immunoprecipitates (FIG. 17A) and cells extracts (FIG. 17B) were analysed by SDS-PAGE under reducing conditions followed by streptavidin-HRP blot and TrxR1 blot.
Clarified octyl-glucoside lysates (12 mg proteins) were combined with anti-TrxR1 or anti-TrxR2 monoclonal antibody coupled to protein G plus agarose (Santa Cruz Biotechnology) and mixed overnight at 4° C. Beads were recovered by centrifugation for 2 min at 1,000×g and extensively washed in octyl-glucoside lysis buffer. Precipitated complexes were eluted by incubating the beads for 20 min at 60° C. in SDS sample buffer. The amount of immunoprecipitated TrxR1 and TrxR2 was systematically checked by blots anti-TrxR1 and anti-TrxR2, respectively.

T2 sequence (Q9NNW7 37-524): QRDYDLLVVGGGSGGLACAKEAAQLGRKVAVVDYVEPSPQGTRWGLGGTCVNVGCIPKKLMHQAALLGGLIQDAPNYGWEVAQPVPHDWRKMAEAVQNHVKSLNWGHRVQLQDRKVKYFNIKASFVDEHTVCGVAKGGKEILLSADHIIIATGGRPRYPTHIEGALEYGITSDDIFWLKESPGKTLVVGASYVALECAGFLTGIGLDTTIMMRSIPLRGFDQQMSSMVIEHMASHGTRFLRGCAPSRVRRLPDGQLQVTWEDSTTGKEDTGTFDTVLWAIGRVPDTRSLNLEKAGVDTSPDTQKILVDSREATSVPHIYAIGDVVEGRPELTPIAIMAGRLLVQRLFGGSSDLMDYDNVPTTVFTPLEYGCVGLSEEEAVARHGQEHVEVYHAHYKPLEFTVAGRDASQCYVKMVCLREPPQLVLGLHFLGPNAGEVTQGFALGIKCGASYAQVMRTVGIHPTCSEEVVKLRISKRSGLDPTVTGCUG

| SMILES | in vitro labeling of isolated cytosolic fraction ([1]; 30 μM Iniparib-biotin, with or without NADH/NADPH) | protein targets in isolated cytosol and mitochondria ([1]; fractions from Iniparib-biotin treated HCT116 cells) | adduct formation with TrxR1 ([2]; NADPH provided) | covalent labeling of TrxR1 ([2]; absence of NADPH) | TrxR2 with one Iniparib adduct on Sec residue ([3]; 1 h) [%] | TrxR2 with one Iniparib adduct on Sec residue ([3]; 4 h) [%] | additional TrxR2 peptide modified on a cysteine residue ([3]; 4 h) [%] | TrxR1 labeling with Iniparib-biotin after preincubation [4] |
| --- | --- | --- | --- | --- | --- | --- | --- | --- |
| O=C(CCCC[C@@H]1SC[C@@H]2NC(=O)N[C@@H]21)NCCNC(=O)c1ccc(I)c([N+](=O)[O-])c1 [Iniparib-biotin, 4-iodo-3-nitro-N-(2-(5-((3 aS,4S,6aR)-2-oxohexahydro-1H-thieno[3,4-d]imidazol-4-yl)pentanamido)ethyl)benzamide] | mainly when NADPH was added | present in both cell compartments | able to form adducts with TrxR1 to a large extent | almost no covalent labeling |  |  |  |  |
| NC(=O)c1ccc(I)c([N+](=O)[O-])c1 [Iniparib, 4-iodo-3-nitrobenzamide] |  |  |  |  | 5 | 12 | < 1 | only a partial inhibition |
